Laboratory results from patent publication US20260345596A1, “TREATMENT OF LOCALLY ADVANCED OR METASTATIC UROTHELIAL CARCINOMA WITH ERDAFINITIB” (priority 2023, published 2026).

Experiments:
[1] = test system: locally advanced or metastatic urothelial carcinoma with selected FGFR3 alterations; test: Study BLC3001 Cohort 2: efficacy of BALVERSA versus pembrolizumab; assay type: in vivo, human; settings: (95% CI)
Protocol: Subjects are assigned to Cohort 1 or Cohort 2 based upon prior treatment with an anti-PD-(L)1 agent. […] Cohort 1 and Cohort 2 are assessed independently.

[2] = in vivo; cited from earlier work

## Pembrolizumab: anti-PD-(L)1 agent pembrolizumab, 200 mg every 3 weeks
[1]
  Median OS: 11.1 (95% CI: 9.7, 13.6) months

## CC(=O)O[C@@]12CO[C@@H]1C[C@H](O)[C@@]1(C)C(=O)[C@H](O)C3=C(C)[C@@H](OC(=O)[C@H](O)[C@@H](NC(=O)OC(C)(C)C)c4ccccc4)C[C@@](O)([C@@H](OC(=O)c4ccccc4)[C@H]21)C3(C)C [Docetaxel]
[2]
  Cystoid macular edema: Cystoid macular edema has been reported
  Severe fluid retention: Severe fluid retention has been reported

## CC[C@]12C=CCN3CC[C@@]4(c5cc([C@@]6(C(=O)OC)C[C@@H]7C[C@@H](C(C)(F)F)CN(Cc8c6[nH]c6ccccc86)C7)c(OC)cc5N(C)[C@H]4[C@@](O)(C(=O)OC)[C@@H]1OC(C)=O)[C@@H]32 [Vinflunine]
[2]
  Posterior reversible encephalopathy syndrome (PRES): Cases of posterior reversible encephalopathy syndrome (PRES) have been observed
